“And” between values parts separate entries of the source, which are not always exact repeats. Identical values can stand only once. Toxic doses and inconclusive results are not listed. Rule as the data show it: active = T/C of 150% or more; inactive = T/C below 125%.
System: L1210 leukemia ip in BDF1 mice, survival T/C
Test: NCI In Vivo Anticancer Drug Screen. Data for tumor model L1210 Leukemia (intraperitoneal) in B6D2F1 (BDF1) mice
Conditions: endpoint: mean survival time, higher = longer survival
In short: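 Mice bearing the transplanted tumor received compound or vehicle. Survival of the treated group was divided by that of the vehicle-treated control group to give the ratio.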

[1] = dose: 12.5 mg/kg/injection, schedule: Q01DX009 (ip), vehicle: Klucel (hydroxypropylcellulose) (HPC)
[2] = dose: 25.0 mg/kg/injection, schedule: Q01DX009 (ip), vehicle: Klucel (hydroxypropylcellulose) (HPC)
[3] = dose: 50.0 mg/kg/injection, schedule: Q01DX009 (ip), vehicle: Klucel (hydroxypropylcellulose) (HPC)
[4] = dose: 100.0 mg/kg/injection, schedule: Q04DX003 (ip), vehicle: saline
[5] = dose: 200.0 mg/kg/injection, schedule: Q04DX003 (ip), vehicle: saline
[6] = dose: 400.0 mg/kg/injection, schedule: Q04DX003 (ip), vehicle: saline
[7] = dose: 25.0 mg/kg/injection, schedule: Q01DX009 (ip), vehicle: saline with Tween-80
[8] = dose: 50.0 mg/kg/injection, schedule: Q01DX009 (ip), vehicle: saline with Tween-80
[9] = dose: 100.0 mg/kg/injection, schedule: Q01DX009 (ip), vehicle: Klucel (hydroxypropylcellulose) (HPC)
[10] = dose: 100.0 mg/kg/injection, schedule: Q01DX009 (ip), vehicle: saline with Tween-80
[11] = dose: 100.0 mg/kg/injection, schedule: Q04DX003 (ip), vehicle: Klucel (hydroxypropylcellulose) (HPC)
[12] = dose: 100.0 mg/kg/injection, schedule: Q04DX003 (ip), vehicle: saline with Tween-80
[13] = dose: 200.0 mg/kg/injection, schedule: Q04DX003 (ip), vehicle: Klucel (hydroxypropylcellulose) (HPC)
[14] = dose: 200.0 mg/kg/injection, schedule: Q04DX002 (ip), vehicle: Klucel (hydroxypropylcellulose) (HPC)
[15] = dose: 400.0 mg/kg/injection, schedule: Q04DX003 (ip), vehicle: Klucel (hydroxypropylcellulose) (HPC)
[16] = dose: 100.0 mg/kg/injection, schedule: Q01DX001 (ip), vehicle: saline
[17] = dose: 200.0 mg/kg/injection, schedule: Q01DX001 (ip), vehicle: saline
[18] = dose: 400.0 mg/kg/injection, schedule: Q01DX001 (ip), vehicle: saline
[19] = dose: 100.0 mg/kg/injection, schedule: Q04DX002 (ip), vehicle: saline
[20] = dose: 200.0 mg/kg/injection, schedule: Q04DX002 (ip), vehicle: saline
[21] = dose: 200.0 mg/kg/injection, schedule: Q01DX009 (ip), vehicle: Klucel (hydroxypropylcellulose) (HPC)
[22] = dose: 400.0 mg/kg/injection, schedule: Q01DX009 (ip), vehicle: Klucel (hydroxypropylcellulose) (HPC)
[23] = dose: 200.0 mg/kg/injection, schedule: Q04DX003 (ip), vehicle: saline with Tween-80

Measured: T/C

NNc1nc2ccccc2s1
inactive: dose: 6.25 mg/kg/injection, schedule: Q01DX009 (ip), vehicle: Klucel (hydroxypropylcellulose) (HPC) 90 % of control | [1] 100 % of control | [2] 94 % of control | [3] 91 % of control

COc1ccc(CCN2CCCC2C(=O)O)cc1OC (stereo not given)
inactive: [4] 96 % of control | [5] 94 % of control | [6] 100 % of control

CCN(CC)CCOC(=O)N1c2ccccc2Sc2ccccc21
inactive: [7] 100 % of control | [3] 102 % of control | [8] 103 % of control | [9] 102 % of control | [10] 103 % of control | [11] 98 % of control | [12] 93 % of control | [13] 93 % of control

CCCCSc1ccccn1
inactive: dose: 50.0 mg/kg/injection, schedule: Q04DX003 (ip), vehicle: saline 114 % of control | [4] 98 % of control | [5] 90 % of control

CCOc1ccc(N)c(O)c1
inactive: dose: 75.0 mg/kg/injection, schedule: Q01DX001 (ip), vehicle: carboxymethylcellulose (CMC) 98 % of control and 102 % of control | dose: 150.0 mg/kg/injection, schedule: Q01DX001 (ip), vehicle: carboxymethylcellulose (CMC) 93 % of control

COc1c(Cl)c(Cl)c(Cl)c(Cl)c1NC(C)=O
inactive: dose: 100.0 mg/kg/injection, schedule: Q01DX001 (ip), vehicle: acetone 102 % of control | dose: 200.0 mg/kg/injection, schedule: Q01DX001 (ip), vehicle: acetone 100 % of control | dose: 400.0 mg/kg/injection, schedule: Q01DX001 (ip), vehicle: acetone 94 % of control

CCCCCCCCCCCc1nc(N)nc(NCCCC)n1
inactive: [1] 97 % of control | [2] 96 % of control | dose: 25.0 mg/kg/injection, schedule: Q04DX002 (ip), vehicle: Klucel (hydroxypropylcellulose) (HPC) 93 % of control | [3] 86 % of control | dose: 50.0 mg/kg/injection, schedule: Q04DX002 (ip), vehicle: Klucel (hydroxypropylcellulose) (HPC) 96 % of control | [14] 89 % of control | dose: 400.0 mg/kg/injection, schedule: Q04DX002 (ip), vehicle: Klucel (hydroxypropylcellulose) (HPC) 89 % of control

CC1=C2[C@H]3OC(=O)[C@H](C)[C@@H]3CC[C@@]2(C)C=CC1=O
inactive: dose: 100.0 mg/kg/injection, schedule: Q01DX001 (ip), vehicle: other 103 % of control | dose: 200.0 mg/kg/injection, schedule: Q01DX001 (ip), vehicle: other 95 % of control

O=C(c1ccccc1)C1OC(=O)C1c1ccccc1 (stereo not given)
inactive: dose: 100.0 mg/kg/injection, schedule: Q01DX001 (ip), vehicle: Klucel (hydroxypropylcellulose) (HPC) 97 % of control | [11] 101 % of control | dose: 200.0 mg/kg/injection, schedule: Q01DX001 (ip), vehicle: Klucel (hydroxypropylcellulose) (HPC) 92 % of control | [13] 101 % of control | dose: 400.0 mg/kg/injection, schedule: Q01DX001 (ip), vehicle: Klucel (hydroxypropylcellulose) (HPC) 103 % of control | [15] 97 % of control

CC(C)(O)CCCC1CCC2C3CCC4CCCCC4(C)C3CCC2(C)C1O (stereo not given)
inactive: dose: 100.0 mg/kg/injection, schedule: Q04DX002 (ip), vehicle: DMSO 86 % of control | dose: 200.0 mg/kg/injection, schedule: Q04DX002 (ip), vehicle: DMSO 96 % of control | dose: 400.0 mg/kg/injection, schedule: Q04DX002 (ip), vehicle: DMSO 92 % of control

CCC1([N+](=O)[O-])COP(=O)(OP2(=O)OCC(CC)([N+](=O)[O-])CO2)OC1 (stereo not given)
inactive: [16] 116 % of control | [17] 97 % of control | [18] 100 % of control

CC1(C)CC2CCC1(Cl)CC2Cl (stereo not given)
inactive: dose: 50.0 mg/kg/injection, schedule: Q01DX009 (ip), vehicle: saline + alcohol 100 % of control | dose: 100.0 mg/kg/injection, schedule: Q01DX009 (ip), vehicle: saline + alcohol 93 % of control

COc1ccc2c(c1)-c1c(O)c(OC)cc3c1C(C2)N(C)CC3 (stereo not given)
inactive: dose: 75.0 mg/kg/injection, schedule: Q01DX001 (ip), vehicle: saline 94 % of control | dose: 150.0 mg/kg/injection, schedule: Q01DX001 (ip), vehicle: saline 98 % of control | dose: 300.0 mg/kg/injection, schedule: Q01DX001 (ip), vehicle: saline 100 % of control

NCCCNCCNCCCN
inactive: [19] 98 % of control | [20] 98 % of control

NNC(=O)C(CSC(c1ccccc1)c1ccccc1)NC(=O)C(CSC(c1ccccc1)(c1ccccc1)c1ccccc1)NC(=O)OCc1ccccc1 (stereo not given)
inactive: [9] 97 % of control | [21] 97 % of control | [22] 94 % of control

CCCCOC(=S)SSC(=S)OCCCC
inactive: [7] 97 % of control | [8] 93 % of control | [10] 103 % of control and 104 % of control

COc1ccccc1NC(=O)Oc1c(C(C)C)cccc1C(C)C
inactive: [9] 94 % of control | [11] 95 % of control | [21] 97 % of control | [13] 102 % of control | [22] 106 % of control | [15] 94 % of control

COC(=O)C(Cl)(Cl)C1(c2ccccc2)OCC(C)(C)N1C(=O)C(Cl)Cl (stereo not given)
inactive: [12] 115 % of control | [23] 94 % of control | dose: 400.0 mg/kg/injection, schedule: Q04DX003 (ip), vehicle: saline with Tween-80 103 % of control

NC(=O)c1cn(C2OC(CO)C(O)C2O)c2ncn3ccnc3c12 (stereo not given)
inactive: dose: 6.25 mg/kg/injection, schedule: Q01DX005 (ip), vehicle: saline 101 % of control | dose: 12.5 mg/kg/injection, schedule: Q01DX005 (ip), vehicle: saline 106 % of control

NC(=O)c1ccccc1NC(=O)Nc1cc(C(F)(F)F)ccc1Cl
inactive: [9] 96 % of control | [21] 86 % of control | [22] 97 % of control

C=CS(=O)CCCCCCCC (stereo not given)
inactive: dose: 100.0 mg/kg/injection, schedule: Q04DX002 (ip), vehicle: Klucel (hydroxypropylcellulose) (HPC) 102 % of control | [14] 102 % of control

O=C(CCCC(=O)N/N=C/c1cccc(Br)c1)N/N=C\c1cccc(Br)c1
inactive: dose: 50.0 mg/kg/injection, schedule: Q01DX001 (ip), vehicle: carboxymethylcellulose (CMC) 90 % of control | dose: 100.0 mg/kg/injection, schedule: Q01DX001 (ip), vehicle: carboxymethylcellulose (CMC) 88 % of control

O=C(Nc1ccc(O)cc1)Nc1cccc(Cl)c1Cl
inactive: [9] 97 % of control | [21] 92 % of control | [22] 103 % of control

CCOP(=O)(OCC)C(O)c1cnc(SC)nc1N (stereo not given)
inactive: dose: 100.0 mg/kg/injection, schedule: Q01DX009 (ip), vehicle: saline 104 % of control | [4] 102 % of control | dose: 200.0 mg/kg/injection, schedule: Q01DX009 (ip), vehicle: saline 100 % of control | [5] 100 % of control | dose: 400.0 mg/kg/injection, schedule: Q01DX009 (ip), vehicle: saline 105 % of control | [6] 98 % of control

CC(=O)CSc1sc(C(C)=O)c(N)c1C#N
inactive: [10] 91 % of control | dose: 200.0 mg/kg/injection, schedule: Q01DX009 (ip), vehicle: saline with Tween-80 91 % of control | dose: 400.0 mg/kg/injection, schedule: Q01DX009 (ip), vehicle: saline with Tween-80 90 % of control

CCOC(=O)C(=O)Nc1cc(C)ccc1C
inactive: [12] 93 % of control | [23] 95 % of control

O=C(Nc1ccccc1)OC1C=CC2CCC1C2 (stereo not given)
inactive: [16] 90 % of control | [17] 87 % of control | [18] 87 % of control

Cc1c(Br)c(=O)[nH]c2c(C)cccc12
inactive: [16] 98 % of control | [17] 98 % of control | [18] 96 % of control

CCN(CC)CCNC(=O)c1cc(N2CCOCC2)ccn1
inactive: [16] 108 % of control | [17] 102 % of control

O=C(O)CNC(=O)N1CCCC1
inactive: [19] 90 % of control | [20] 96 % of control | dose: 400.0 mg/kg/injection, schedule: Q04DX002 (ip), vehicle: saline 104 % of control

Reference: PubChem BioAssay AID248 (DTP/NCI, 2004)
